# Data taken from patent US6969590B2, “Use of a polypeptide for treatment of pruritus in animals” (Zengen, Inc., priority 2001, dated 2005).
# “Also recorded” adds a separate entry of the source.
# Key:
# C. albicans = C. albicans colony forming units (candidacidal activity); assay type: cell-based
# Experimental: C. albicans (1×10^6/ml in HBSS) was incubated in the presence or absence or α-MSH (1-13) or α-MSH (11-13) at concentrations in the range of 10^−15 M to 10^−6 M for 2 hours at 37° C. Cells were then washed in cold distilled water and diluted with HBSS to a concentration of 100 organisms/ml. One-ml aliquots were dispensed on blood agar plates and incubated for 48 hours at 37° C. Organism viability was estimated from the number of colonies formed. In subsequent experiments using familiar procedures we compared activity of α-MSH (4-10), α-MSH (6-13), α-MSH (11-13), ACTH (1-39), (18-39) and fluconazole, the latter an established antifungal agent. Melanocortin peptides and fluconazole were tested in concentrations of 10^−6 M to 10^−4 M. There were at least six replicates for each concentration of peptide.
# TNF-α and iNOS mRNA = test: Northern blot of TNF-α and iNOS mRNA in activated microglia; assay type: cell-based, murine
# Experimental: Total cellular RNA was extracted from 10^6 adherent microglial cells plated in six-well tissue culture plates (Corning). Electrophoresis of RNA samples (10 μg/lane) was performed in 1% agarose/2.2 M formaldehyde gels and the gels subsequently blotted onto nylon filters by capillary action and baked for 2 h before prehybridization. The cDNA fragments encoding murine TNF-α and mouse macrophage iNOS were ^32P-labeled using the Ready-To-Go DNA Labeling Kit (Pharmacia, Uppsala, Sweden) before hybridization of nylon filters and autoradiography. Blots were subsequently rehybridized with human glyceraldehyde-3-phosphate dehydrogenase (G-3-PDH) cDNA probe as an internal control (Clontech Laboratories, Inc., Palo Alto, Calif.).
sequence,measurement,setting,value
SYSMEHFRWGKPV [α-MSH (1-13)],relative potency in reducing C. albicans viability,C. albicans; 10^−4M melanocortin peptides,the most effective
same,effect on C. albicans colony forming units (CFU),"C. albicans; 2 hours at 37° C., vs. control",greatly reduced; also recorded: significantly decreased C. albicans colony forming units; also recorded: inhibitory effect
same,mRNA for TNF-α and iNOS (Northern blot),TNF-α and iNOS mRNA,inhibition of mRNA transaction for TNF-α and iNOS
